According to PubChem BioAssay (NCI):
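Five concentrations, 48 hours, 96-well plates. GI50 = concentration required for 50% inhibition of growth. Definition used: TGI = concentration required for complete inhibition of growth.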

Key:
Test in all cases: growth of human tumour cells (NCI), 48 h
[1] = test system: A498 renal
[2] = test system: HT29 colon
[3] = test system: KM12 colon
[4] = test system: NCI-H226 lung
[5] = test system: OVCAR-3 ovarian
[6] = test system: OVCAR-5 ovarian
[7] = test system: OVCAR-8 ovarian
[8] = test system: SF-268 CNS
[9] = test system: SF-295 CNS
[10] = test system: SK-MEL-5 melanoma
[11] = test system: SN12C renal
[12] = test system: UO-31 renal
[13] = test system: ACHN renal

Structure (SMILES)	TGI [1]	TGI [2]	TGI [3]	TGI [4]	TGI [5]	TGI [6]	TGI [7]	TGI [8]	TGI [9]	TGI [10]	TGI [11]	TGI [12]	TGI [13]	GI50 [1]	GI50 [13]	GI50 [5]	GI50 [6]	GI50 [9]	GI50 [10]	GI50 [12]
Oc1c2c(c3c4c1N=CC=4CCN=3)C1(C=C(Br)C(O)C(Br)=C1)CCN2 (centres undefined)	23.4 µM	2.15 µM	6.16 µM	9 µM	3.12 µM	4.49 µM	2.91 µM	5.75 µM	7.74 µM	2.67 µM	3.44 µM	28 µM	–	–	–	–	–	–	–	–
CCN(CC)CCOCC1CCCN2CCCCC12 (centres undefined)	–	> 100 µM	> 100 µM	> 100 µM	> 100 µM	> 100 µM	> 100 µM	> 100 µM	> 100 µM	> 100 µM	> 100 µM	> 100 µM	> 100 µM	–	–	–	–	–	–	–
CCCC(=O)[O-].CCCC(=O)[O-].N.N.N.N.[Co+3].[O-][Cl+3]([O-])([O-])[O-]	> 100 µM	> 100 µM	> 100 µM	–	> 100 µM	> 100 µM	> 100 µM	> 100 µM	> 100 µM	> 100 µM	> 100 µM	> 100 µM	> 100 µM	–	–	–	–	–	–	–
Cc1n(-c2ccccc2)c2c([n+]1Cc1ccc([N+](=O)[O-])cc1)C(=O)c1ccccc1C2=O	25.5 µM	6.43 µM	6.54 µM	15.1 µM	0.854 µM	3.46 µM	6.43 µM	3.71 µM	15.3 µM	3.29 µM	3.08 µM	26.6 µM	13.9 µM	–	–	–	–	–	–	–
Cc1cc(=O)[nH]c(NN2C(Cl)C(=O)C2c2c(O)ccc3ccccc23)n1 (centres undefined)	–	74 µM	61.5 µM	45.6 µM	64.9 µM	> 100 µM	> 100 µM	> 100 µM	–	29.9 µM	69.5 µM	> 100 µM	> 100 µM	–	–	–	–	–	–	–
COc1cc(O)c2c(c1O)C(=O)c1cc(C)ncc1C2=O	> 50 µM	> 50 µM	> 50 µM	> 50 µM	45.9 µM	> 50 µM	> 50 µM	> 50 µM	> 50 µM	30 µM	> 50 µM	42.5 µM	> 50 µM	–	–	–	–	–	–	–
CCCCCCCSCC1OC(n2cnc3c(N)ncnc32)C(O)C1O (centres undefined)	32.4 µM	4.51 µM	–	> 100 µM	–	> 100 µM	54.1 µM	> 100 µM	> 100 µM	30.8 µM	65.4 µM	–	> 100 µM	–	–	–	–	–	–	–
C[N+]1(CCCC[N+]2(C)CCCCCCC2)CCCCCCC1	> 100 µM	> 100 µM	> 100 µM	> 100 µM	> 100 µM	> 100 µM	> 100 µM	> 100 µM	> 100 µM	> 100 µM	> 100 µM	> 100 µM	> 100 µM	–	–	–	–	–	–	–
NS(=O)(=O)c1ccc(N=Nc2nc3[nH]cnc(=S)c3[nH]2)cc1	98.9 µM	> 68.2 µM	> 100 µM	> 76.5 µM	> 22.5 µM	> 60.2 µM	> 100 µM	> 100 µM	> 64.7 µM	24.8 µM	> 40.1 µM	> 43.8 µM	> 100 µM	–	–	–	–	–	–	–
Cc1n(CC(C)C)c2c([n+]1CC(=O)c1ccc([N+](=O)[O-])cc1)C(=O)c1ccccc1C2=O	2.21 µM	0.55 µM	0.386 µM	0.0523 µM	–	0.0698 µM	0.476 µM	< 0.0391 µM	1.51 µM	< 0.0309 µM	0.0107 µM	30.2 µM	–	–	–	–	–	–	–	–
OCCN1CCN(c2nc(Nc3ccc(-c4nc5ccccc5[nH]4)cc3)c3cn[nH]c3n2)CC1	3.44 µM	–	–	–	3.28 µM	3.26 µM	–	–	3.31 µM	3.15 µM	–	3.14 µM	3.16 µM	1.92 µM	1.75 µM	1.69 µM	1.83 µM	1.88 µM	1.75 µM	1.64 µM
Nc1nc(Sc2ccc([N+](=O)[O-])cn2)c2[nH]cnc2n1	47.8 µM	> 74.3 µM	> 38.1 µM	57.3 µM	> 75 µM	> 100 µM	> 80.4 µM	> 100 µM	> 94.2 µM	31.2 µM	29.4 µM	24.7 µM	> 73.5 µM	–	–	–	–	–	–	–
C=CCCCCn1c2ccccc2c2c(C)c3c[n+](C)ccc3c(C)c21	4.42 µM	1.75 µM	1.6 µM	–	1.52 µM	3.26 µM	1.28 µM	1.56 µM	2.6 µM	1.36 µM	–	19.4 µM	12.8 µM	–	–	–	–	–	–	–
NC(N)=NCCCC(NCc1c2ccccc2[n+]([O-])c2ccccc12)C(=O)O (centres undefined)	> 100 µM	> 100 µM	> 100 µM	> 100 µM	> 100 µM	> 100 µM	> 100 µM	> 100 µM	> 100 µM	> 100 µM	> 100 µM	89.8 µM	> 100 µM	–	–	–	–	–	–	–
Clc1ccc2c(Cl)nc(-c3ccccc3)nc2c1	> 100 µM	> 100 µM	> 100 µM	55.9 µM	50.1 µM	> 100 µM	> 100 µM	> 100 µM	90.3 µM	82.4 µM	> 100 µM	> 100 µM	> 100 µM	–	–	–	–	–	–	–
